Test results reported in BindingDB's records for doi:10.1016/j.bmc.2010.04.075 (Chungnam National University, 2010).

Assay: Inhibition of IL5-mediated proliferation of mouse Y16 cells by WST1 assay

Q: Which IC50 does the source give for COc1cc(-c2coc3cccc(OCC4CCCCC4)c3c2=O)ccc1OCc1ccccc1 [3-(4-(Benzyloxy)-3-methoxyphenyl)-5-(cyclohexylmethoxy)-4H-chromen-4-one] here?
A: 17.4 µM

Q: For COc1ccc(-c2coc3cccc(OCC4CCCCC4)c3c2=O)cc1OC [5-(Cyclohexylmethoxy)-3-(3,4-dimethoxyphenyl)-4Hchromen-4-one], which IC50 is on record?
A: > 30 µM

Q: With CCc1ccc(-c2coc3cccc(OCC4CCCCC4)c3c2=O)cc1 [5-(Cyclohexylmethoxy)-3-(4-ethylphenyl)-4H-chromen-4-one] as the compound, how does the IC50 read?
A: > 30 µM

Q: Which IC50 does the source give for COc1cc(-c2coc3cccc(OCC4CCCCC4)c3c2=O)ccc1O [5-(Cyclohexylmethoxy)-3-(4-hydroxy-3-methoxyphenyl)-4H-chromen-4-one] here?
A: > 30 µM

Q: Which IC50 does the source give for COc1ccc(-c2coc3cccc(OCC4CCCCC4)c3c2=O)cc1 [5-(Cyclohexylmethoxy)-3-(4-methoxyphenyl)-4H-chromen-4-one] here?
A: > 30 µM

Q: For COCOc1ccc(-c2coc3cccc(OCC4CCCCC4)c3c2=O)cc1 [5-(Cyclohexylmethoxy)-3-[4-(methoxymethoxy)phenyl]-4H-chromen-4-one], which IC50 is on record?
A: > 30 µM

Q: With O=C1/C(=C/c2ccc(Cl)cc2)Oc2cccc(OCC3CCCCC3)c21 [(Z)-2-(4-Chlorobenzylidene)-4-(cyclohexylmethoxy)benzofuran-3(2H)-one] as the compound, how does the IC50 read?
A: > 30 µM

Q: Which IC50 does the source give for O=C1/C(=C/c2ccccc2)Oc2cccc(OCC3CCCCC3)c21 [(Z)-2-(Benzylidene)-4-(cyclohexylmethoxy)benzofuran-3(2H)-one] here?
A: > 30 µM

Q: Which IC50 does the source give for O=C1/C(=C/c2ccc([N+](=O)[O-])cc2)Oc2cccc(OCC3CCCCC3)c21 [(Z)-4-(Cyclohexylmethoxy)-2-(4-nitrobenzylidene)benzofuran-3(2H)-one] here?
A: > 30 µM

Q: Which IC50 does the source give for CCc1ccc(/C=C2\Oc3cccc(OCC4CCCCC4)c3C2=O)cc1 [(Z)-4-(cyclohexylmethoxy)-2-(4-ethylbenzylidene)benzofuran-3(2H)-one] here?
A: > 30 µM

Q: With O=Cc1ccc(/C=C2\Oc3cccc(OCC4CCCCC4)c3C2=O)cc1 [(Z)-4-{[4-(Cyclohexylmethoxy)-3-oxobenzofuran-2(3H)-ylidene]methyl}benzaldehyde] as the compound, how does the IC50 read?
A: > 30 µM

Q: With COC(=O)c1ccc(/C=C2\Oc3cccc(OCC4CCCCC4)c3C2=O)cc1 [Methyl(Z)-4-[4-(cyclohexylmethoxy)-3-oxobenzofuran-2(3H)-ylidene]methylbenzoate] as the compound, how does the IC50 read?
A: > 30 µM
